Experimental data published in US4053604A (priority 1975, dated 1977).
“Also recorded” adds a separate entry of the source.

Assays:
[1] = tail-flick test, analgesic activity of the agent alone; type: in vivo, albino mice
Description: In the following experiments, phenoperidine and Compound I are used in the form of their hydrochloride salt and droperidol in the form of its free base in the presence of lactic acid for adjustment to pH to 3.4. Results are expressed on the basis of the form of the drug employed (i.e., free base or hydrochloride salt).
Results of such tests using albino mice are illustrated by tables 1,2 and 3 in which the neuroleptic agent, droperidol, is included for comparative purposes.
*The dose which increased analgesia by 50% when tested 15 minutes after […]

[2] = in words; cited from earlier work
[3] = induction time of rats exposed to halothane anesthesia (loss of righting reflex); type: in vivo, male albino rats (Sprague-Dawley)
Experimental: The effects of Compound I on halothane-induced anesthesia were assessed using 20 rats for each dose or time interval determination. The experiments were performed on male albino rats (Sprague-Dawley) weighing from 180-220 g. A schematic representation of the apparatus used is illustrated in FIG. 1. The apparatus consists of a rectangular box made of transparent plastic (115 cm long × 28 cm high × 28 cm wide) which is divided into 4 equal chambers by perforated walls. The box rotates around a hollow axis through which gases can be delivered at several proportions from cylinders, through their respective flowmeters. An in-line halothane vaporizer is placed just before the gases reach the chambers. There is an air-tight door to every chamber through which two animals, one treated and one control, are introduced. The gases are delivered at one end of the box and suction is applied to the other end to take up the gases after flowing through the chambers. An in-line water manometer monitors the resulting pressure. This pressure is kept at 0-5 mm H2 O to make certain the gases in the anesthetic chambers remain at atmospheric pressure. The mixture of gases is delivered at a rate of 15 l/min. The inhalation anesthetic gases are delivered for ten minutes prior to the introduction of the animals into the chambers to assure an even distribution in the four chambers. The chambers rotate at four rev/min forcing the animals to tumble and allowing the experimenter to accurately time the loss and recovery of the righting reflex. Induction times are recorded as the time interval elapsed between the beginning of exposure of the animals to the gases and the moment in which they lose their righting reflex.
Groups of control animals (four at a time) were subjected to halothane concentrations ranging from 0.5 to 2.5% in a mixture of 95% O2 -5% CO2, and the induction times thus obtained were used to calculate concentration-reponse curves. Since a certain time elapsed between putting the first and the last rat into their respective chambers, each animal was timed separately with a stopwatch. […] This intermediate concentration of halothane was then used to study the effects of increasing doses of the test compound on the induction times and anesthesia times.
The animals were pretreated by administering the test compounds in dosages ranging from 10 to 500 μg/kg, i.v., at 5, 30, 60, 120, 240 and 360 minutes prior to their exposure to halothane. As soon as all animals lost their righting reflex, the O2 -halothane flow was discontinued and replaced by an equal flow of air. The animals were allowed to remain in the rotating chambers until they regained their righting reflex. Anesthesia times were determined as the interval between the time required to lose and the time to regain the righting reflex. Air flushing of the anesthetic chambers was performed after each determination and the entire procedure repeated with another group of animals for the determination of the effect of a new dose or concentration.
Drugs used in this study include: droperidol, phenoperidine hydrochloride, halothane and Compound I in the form of its hydrochloride salt. Phenoperidine hydrochloride and Compound I (hydrochloride) were dissolved separately in a warm solution of 0.9% sodium chloride. Droperidol was suspended in saline with the aid of a drop ot Tween 80 (Tween 80 is a registered trademark for a complex mixture of polyoxyethylene ethers of mixed partial oleic esters of sorbitol anhydride). Dosages are expressed in this study as the salt form of the compound where applicable. When the experimental protocol called for the concomitant administration of two drugs, these were mixed in the syringe and administered intravenously. The drugs were injected in a volume of 0.1 ml/100 g body weight.
The statistical analysis of the data was performed using Student's […]. […]

[4] = respiratory minute volume and mean arterial blood pressure in rats; type: in vivo
Experimental: These effects are less than those encountered with neuroleptics presently available for NLA as evidenced by laboratory experiments in rats in which these cardiovascular parameters are measured before and after the administration of Compound 1 and the neuroleptic agent droperidol, see Table 8.
The Effect of Compound 1 and Droperidol on Respiratory Minute Volume
and Mean Arterial Blood Pressure

**Q.** With CC(C)[C@@]1(O)CCN2C[C@@H]3c4ccccc4CCc4cccc(c43)[C@H]2C1 [Compound 1, (+)(4a,13b-trans)-(3-hydroxy,13b-trans)-3-isopropyl-2,- 3,4,4a,8,9,13b,14-octahydro-lH-benzo[6,7]cyclohepta[1,2,3-de]pyrido[2,1-a]isoquinolin-3-ol] as the compound, how does the ED50 ([1]; Mus musculus, ip, 0.25 h, i.p., dose which increased analgesia by 50% when tested 15 minutes after drug administration) read?
**A.** > 35 mg/kg

**Q.** And the “analgesic activity when given alone” value ([1]; in words, listed as Compound I)?
**A.** only a negligible amount of analgesic activity; also recorded: no analgesic activity could be demonstrated

**Q.** And the neuroleptic potency [2]?
**A.** potent neuroleptic agent

**Q.** What about the “Induction time, treated” value ([3]; 10 μg/kg i.v., 5 min before 0.75% halothane) of the same compound?
**A.** 6.66 min

**Q.** What about the “Induction time, treated” value ([3]; 10 μg/kg i.v., 5 min before 1.0% halothane) of the same compound?
**A.** 2.67 min

**Q.** What about the “Induction time, treated” value ([3]; 10 μg/kg i.v., 5 min before 1.5% halothane) of the same compound?
**A.** 1.32 min

**Q.** And the “Induction time, treated” value ([3]; 10 μg/kg i.v., 5 min before 2.0% halothane)?
**A.** 0.72 min

**Q.** What about the “Induction time, treated” value ([3]; 10 μg/kg i.v., 5 min before 2.5% halothane) of the same compound?
**A.** 0.57 min

**Q.** And the “Induction time, treated” value ([3]; 25 μg/kg i.v., 5 min before 0.75% halothane)?
**A.** 6.30 min

**Q.** What about the “Induction time, treated” value ([3]; 25 μg/kg i.v., 5 min before 1.0% halothane) of the same compound?
**A.** 1.86 min

**Q.** And the “Induction time, treated” value ([3]; 25 μg/kg i.v., 5 min before 1.5% halothane)?
**A.** 1.02 min

**Q.** What about the “Induction time, treated” value ([3]; 25 μg/kg i.v., 5 min before 2.0% halothane) of the same compound?
**A.** 0.71 min

**Q.** And the “Induction time, treated” value ([3]; 25 μg/kg i.v., 5 min before 2.5% halothane)?
**A.** 0.58 min

**Q.** And the “Induction time, treated” value ([3]; 50 μg/kg i.v., 5 min before 0.75% halothane)?
**A.** 5.77 min

**Q.** And the “Induction time, treated” value ([3]; 50 μg/kg i.v., 5 min before 1.0% halothane)?
**A.** 1.62 min

**Q.** What about the “Induction time, treated” value ([3]; 50 μg/kg i.v., 5 min before 1.5% halothane) of the same compound?
**A.** 1.03 min

**Q.** And the “Induction time, treated” value ([3]; 50 μg/kg i.v., 5 min before 2.0% halothane)?
**A.** 0.75 min

**Q.** And the “Induction time, treated” value ([3]; 50 μg/kg i.v., 5 min before 2.5% halothane)?
**A.** 0.57 min

**Q.** What about the “Induction time, treated” value ([3]; 100 μg/kg i.v., 5 min before 0.75% halothane) of the same compound?
**A.** 4.05 min

**Q.** What about the “Induction time, treated” value ([3]; 100 μg/kg i.v., 5 min before 1.0% halothane) of the same compound?
**A.** 1.37 min

**Q.** What about the “Induction time, treated” value ([3]; 100 μg/kg i.v., 5 min before 1.5% halothane) of the same compound?
**A.** 1.13 min

**Q.** What about the “Induction time, treated” value ([3]; 100 μg/kg i.v., 5 min before 2.0% halothane) of the same compound?
**A.** 0.69 min

**Q.** And the “Induction time, treated” value ([3]; 100 μg/kg i.v., 5 min before 2.5% halothane)?
**A.** 0.54 min

**Q.** And the “Induction time, treated” value ([3]; 200 μg/kg i.v., 5 min before 0.75% halothane)?
**A.** 3.48 min

**Q.** And the “Induction time, treated” value ([3]; 200 μg/kg i.v., 5 min before 1.0% halothane)?
**A.** 1.31 min

**Q.** What about the “Induction time, treated” value ([3]; 200 μg/kg i.v., 5 min before 1.5% halothane) of the same compound?
**A.** 1.03 min

**Q.** And the “Induction time, treated” value ([3]; 200 μg/kg i.v., 5 min before 2.0% halothane)?
**A.** 0.64 min

**Q.** What about the “Induction time, treated” value ([3]; 200 μg/kg i.v., 5 min before 2.5% halothane) of the same compound?
**A.** 0.57 min

**Q.** And the “reduction of induction time” value ([3]; 200 μg/kg, i.v., 1% halothane)?
**A.** approximately 50%

**Q.** What about the “Induction time, treated” value ([3]; 250 μg/kg i.v., 5 min before 0.75% halothane) of the same compound?
**A.** 3.72 min

**Q.** What about the “Induction time, treated” value ([3]; 250 μg/kg i.v., 5 min before 1.0% halothane) of the same compound?
**A.** 1.67 min

**Q.** What about the “Induction time, treated” value ([3]; 250 μg/kg i.v., 5 min before 1.5% halothane) of the same compound?
**A.** 0.91 min

**Q.** And the “Induction time, treated” value ([3]; 250 μg/kg i.v., 5 min before 2.0% halothane)?
**A.** 0.67 min

**Q.** What about the “Induction time, treated” value ([3]; 250 μg/kg i.v., 5 min before 2.5% halothane) of the same compound?
**A.** 0.60 min

**Q.** What about the “maximum decrease in induction time” value ([3]; Compound 1 (hydrochloride) alone, i.v., 5 min before 1% halothane (FIG. 2)) of the same compound?
**A.** 45%

**Q.** And the “effect on induction time for the anesthetic” value ([3]; administered prior to anesthetic treatment, in words, listed as Compound I)?
**A.** decreased considerably; also recorded: substantially reduced

**Q.** What about the “decrease in induction time, with phenoperidine” value ([3]; plus 25 μg/kg, i.v., phenoperidine hydrochloride, 1% halothane (FIG. 2)) of the same compound?
**A.** about 65%

**Q.** And the “Change in Mean B.P. as % of Control” value ([4]; 25 μg/kg)?
**A.** -0.83 ± 0.83 % of Control

**Q.** And the “Change in Minute Volume as % of Control” value ([4]; 25 μg/kg)?
**A.** +4.2 ± 1.4 % of Control

**Q.** What about the “Change in Mean B.P. as % of Control” value ([4]; 100 μg/kg) of the same compound?
**A.** -4.1 ± 2.6 % of Control

**Q.** What about the “Change in Minute Volume as % of Control” value ([4]; 100 μg/kg) of the same compound?
**A.** +6.8 ± 1.9 % of Control

**Q.** And the “Change in Mean B.P. as % of Control” value ([4]; 250 μg/kg)?
**A.** -8.9 ± 1.6 % of Control

**Q.** And the “Change in Minute Volume as % of Control” value ([4]; 250 μg/kg)?
**A.** +6.6 ± 2.7 % of Control

**Q.** What about the “effect on respiratory minute volume” value ([4]; in words) of the same compound?
**A.** only a very small increase in minute volume

**Q.** What about the “effect on mean arterial blood pressure” value ([4]; upper level of therapeutically effective neuroleptic dosages, in words) of the same compound?
**A.** minor diminution of blood pressure
